We go through one compound from patent US11129822B2 (priority 2016, dated 2021).

For data set [1], the system named is Sprague Dawley rats. As to conditions: rat, in vivo; cited from earlier work.
Data set [2] deals with Sprague Dawley rats. The settings on record: rat, in vivo.

On to `CN(C)C(=O)Oc1ccc[n+](C)c1` [pyridostigimine], for which, in the data set with Sprague Dawley rats [1], the “pyridostigmine-induced signs of toxicity” value is “ocular discharge, nasal discharge, hypoactivity, prostration, ataxia, diarrhea, hunched posture, thin appearance and death”. The “side effects in treated rats” value in the data set on Sprague Dawley rats [2] was “no side effects”.
